For assay [1], the target named is T1, AR-Receptor (Homo sapiens, UniProt P10275).
T1 sequence (P10275 1-920 Q868H): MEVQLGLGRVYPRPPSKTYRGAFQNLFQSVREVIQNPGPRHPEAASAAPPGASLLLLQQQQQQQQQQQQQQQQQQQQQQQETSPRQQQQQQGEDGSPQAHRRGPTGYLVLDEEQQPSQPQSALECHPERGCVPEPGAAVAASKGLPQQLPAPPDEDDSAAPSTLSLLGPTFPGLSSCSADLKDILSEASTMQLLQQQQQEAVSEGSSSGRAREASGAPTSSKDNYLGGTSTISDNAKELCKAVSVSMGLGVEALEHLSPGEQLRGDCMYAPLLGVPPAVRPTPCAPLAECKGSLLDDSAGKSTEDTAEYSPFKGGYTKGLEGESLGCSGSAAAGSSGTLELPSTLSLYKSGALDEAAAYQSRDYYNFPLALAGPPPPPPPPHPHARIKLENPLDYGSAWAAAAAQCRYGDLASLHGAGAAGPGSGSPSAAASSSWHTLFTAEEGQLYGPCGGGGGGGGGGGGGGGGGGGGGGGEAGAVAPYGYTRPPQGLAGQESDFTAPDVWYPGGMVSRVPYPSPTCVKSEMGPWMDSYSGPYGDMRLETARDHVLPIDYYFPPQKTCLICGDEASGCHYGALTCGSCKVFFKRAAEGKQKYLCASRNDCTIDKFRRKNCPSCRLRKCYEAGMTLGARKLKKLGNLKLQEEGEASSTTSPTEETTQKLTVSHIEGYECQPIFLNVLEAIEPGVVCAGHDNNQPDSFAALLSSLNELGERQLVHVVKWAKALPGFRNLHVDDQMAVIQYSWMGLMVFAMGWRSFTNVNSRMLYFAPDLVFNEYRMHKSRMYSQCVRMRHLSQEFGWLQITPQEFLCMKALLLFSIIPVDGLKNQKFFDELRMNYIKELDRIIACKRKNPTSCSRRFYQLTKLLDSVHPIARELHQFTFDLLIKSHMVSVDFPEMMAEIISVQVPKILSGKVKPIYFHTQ
As to the kind of experiment: Functional Assay AR-Receptor (MDA-MB-453 cells, luciferase). Format: cell-based. The settings on record: antagonist effect in the presence of DHT 1 nM, 24 h, luciferase luminescence, read-out: AR antag KB. The gist of the method:
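MDA-MB-453 cells, 8000/well, were switched to medium with 0.1% FBS and exposed to compounds for 24 h at 37 °C. Antagonist mode used 1 nM DHT. After lysis and a freeze-thaw cycle, luciferase luminescence was read.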

Assay [2] deals with T2, Human Glucocorticoid Receptor (Homo sapiens, UniProt P04150).
T2 construct: endogenous in cells; host or cells: cytosol from IM-9 cell line
T2 sequence (P04150 1-777): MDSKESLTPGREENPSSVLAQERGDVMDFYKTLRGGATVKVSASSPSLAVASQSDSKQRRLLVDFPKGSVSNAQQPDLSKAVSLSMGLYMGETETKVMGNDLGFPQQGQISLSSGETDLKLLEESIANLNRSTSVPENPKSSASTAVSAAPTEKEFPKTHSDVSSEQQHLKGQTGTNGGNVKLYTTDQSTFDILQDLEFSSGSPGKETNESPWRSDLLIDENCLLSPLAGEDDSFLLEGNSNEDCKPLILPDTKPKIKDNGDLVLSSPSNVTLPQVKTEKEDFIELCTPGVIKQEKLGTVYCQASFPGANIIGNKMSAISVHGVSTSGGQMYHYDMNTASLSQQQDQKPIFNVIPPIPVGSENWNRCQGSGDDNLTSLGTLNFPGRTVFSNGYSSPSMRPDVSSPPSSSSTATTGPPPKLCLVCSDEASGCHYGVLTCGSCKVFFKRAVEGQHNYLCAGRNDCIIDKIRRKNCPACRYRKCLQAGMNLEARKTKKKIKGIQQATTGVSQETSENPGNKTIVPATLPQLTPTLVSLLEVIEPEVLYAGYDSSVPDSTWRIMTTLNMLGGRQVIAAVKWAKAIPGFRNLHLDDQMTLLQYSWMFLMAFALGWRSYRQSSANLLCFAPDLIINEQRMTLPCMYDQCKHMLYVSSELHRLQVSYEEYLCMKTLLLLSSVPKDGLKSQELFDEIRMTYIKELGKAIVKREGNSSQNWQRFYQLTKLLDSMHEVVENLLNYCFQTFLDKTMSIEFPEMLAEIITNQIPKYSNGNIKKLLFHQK
As to the kind of experiment: Competition Binding in IM-9 Human Glucocorticoid Receptor (GR IM-9). To be noted: cytosol from IM-9 cell line, 1.5 nM [3H]-Dexamethasone, 4° C. for 6 hours. The gist of the method: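 Radioligand competition using 100 μg IM-9 cell cytosol and 1.5 nM [3H]-dexamethasone, incubated 6 h at 4° C in TES/molybdate buffer, pH 7.4. Filtration on PEI-treated GF/B filters, scintillation counting; nonspecific binding defined with 10 μM triamcinolone.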

Broadly, the Kb is the affinity of an antagonist, worked out from how it opposes an agonist. Usually pIC50 stands for the negative decadic logarithm of the IC50, by convention in mol/L. Low readings indicate a high IC50, high ones a low IC50.

Each structure is given as a SMILES string. pIC50: −log10 of the molar value.

In the case of `CC(=O)C1=C(C)NC(C)=C(C(=O)OCc2ccccc2)C1c1csc2ccccc12` (centres unmarked) [Example B6, Benzyl 5-acetyl-4-(benzo[b]thiophen-3-yl)-2,6-dimethyl-1,4-dihydro-pyridine-3-carboxylate], the Kb in assay [1] lay within 100 to 1000 nM. For the same compound, in assay [2], the negative logarithm of the IC50 (pIC50) is 6.00 to 7.00.
With `CC(=O)C1=C(C)NC(C2CC2)=C(C(=O)OCc2ccncc2)C1c1csc2c(Br)cccc12` (centres unmarked) [Example J41, Pyridin-4-ylmethyl 5-acetyl-4-(7-bromobenzo[b]thiophen-3-yl)-2-cyclopropyl-6-methyl-1,4-dihydropyridine-3-carboxylate], in assay [1], the Kb was 100 to 1000 nM. The pIC50 in assay [2] is greater than 7.00.
As to `COC(=O)C1=C(C)NC(N)=C(C(=O)OCC2CC2)C1c1csc2c(C#N)cc(F)cc12` (centres unmarked) [Example D39, 3-(Cyclopropylmethyl) 5-methyl 2-amino-4-(7-cyano-5-fluorobenzo[b]thiophen-3-yl)-6-methyl-1,4-dihydropyridine-3,5-dicarboxylate], in assay [1], the Kb was in the range of 100 to 1000 nM. In assay [2], this compound had a pIC50 greater than 7.00.
The matching figures for `COC(=O)C1=C(C2CC2)NC(C)=C(C(C)=O)C1c1csc2c(Br)cccc12` (centres unmarked) [Example J26, Methyl 5-acetyl-4-(7-bromobenzo[b]thiophen-3-yl)-2-cyclopropyl-6-methyl-1,4-dihydropyridine-3-carboxylate]: 100 to 1000 nM and greater than 7.00.
The matching figures for `CC(=O)C1=C(C)NC(C)=C(C(=O)OC2CCCCC2)C1c1csc2ncccc12` (centres unmarked) [Example C36, Cyclohexyl 5-acetyl-2,6-dimethyl-4-(thieno[2,3-b]pyridin-3-yl)-1,4-dihydropyridine-3-carboxylate]: no less than 1000 nM and greater than 7.00.
As to `CC1=C(C(=O)OC2CC2)C(c2csc3c(C#N)cccc23)C(C(=O)OCC2CC2)=C(N)N1` (centres unmarked) [Example D37, 5-Cyclopropyl 3-(cyclopropylmethyl) 2-amino-4-(7-cyanobenzo[b]thiophen-3-yl)-6-methyl-1,4-dihydropyridine-3,5-dicarboxylate], the Kb in assay [1] is 100 to 1000 nM. The pIC50 in assay [2] is greater than 7.00.
The matching figures for `CC(=O)C1=C(C)NC(C)=C(C(=O)OCc2ccc(Br)cc2)C1c1csc2ncccc12` (centres unmarked) [Example C65, 4-bromobenzyl 5-acetyl-2,6-dimethyl-4-(thieno[2,3-b]pyridin-3-yl)-1,4-dihydropyridine-3-carboxylate]: 100 to 1000 nM and greater than 7.00.
The matching figures for `CC(=O)C1=C(C)NC(C)=C(C(=O)OCC2CCOCC2)C1c1csc2ccccc12` (centres unmarked) [Example C2, (Tetrahydro-2H-pyran-4-yl)methyl 5-acetyl-4-(benzo[b]thiophen-3-yl)-2,6-dimethyl-1,4-dihydropyridine-3-carboxylate]: 100 to 1000 nM and 6.00 to 7.00.
The matching figures for `CC(=O)C1=C(C)NC(C)=C(C(=O)OCC2CCOCC2)C1c1csc2ccc(F)cc12` (centres unmarked) [Example C44, (Tetrahydro-2H-pyran-4-yl)methyl 5-acetyl-4-(5-fluorobenzo[b]thiophen-3-yl)-2,6-dimethyl-1,4-dihydropyridine-3-carboxylate]: 100 to 1000 nM and 6.00 to 7.00.
`COC(=O)C1=C(C)NC(N)=C(C(=O)OC2CCCC2)C1c1csc2c(C#N)cccc12` (centres unmarked) [Example D27, 3-Cyclopentyl 5-methyl 2-amino-4-(7-cyanobenzo[b]thiophen-3-yl)-6-methyl-1,4-dihydropyridine-3,5-dicarboxylate]: the Kb in assay [1] lay in the range of 100 to 1000 nM. Moreover, the pIC50 in assay [2] is greater than 7.00.
The matching figures for `COC(=O)C1=C(C)NC(N)=C(C(=O)OC(C)C)C1c1csc2c(C#N)cccc12` (centres unmarked) [Example D41, 3-Isopropyl 5-methyl 2-amino-4-(7-cyanobenzo[b]thiophen-3-yl)-6-methyl-1,4-dihydropyridine-3,5-dicarboxylate]: less than 100 nM and greater than 7.00.
On the same counts, the results for `C#CCOC(=O)C1=C(C)NC(N)=C(C(=O)OCC2CC2)C1c1csc2c(C#N)cccc12` (centres unmarked) [Example D47, 3-(Cyclopropylmethyl) 5-(prop-2-yn-1-yl) 2-amino-4-(7-cyanobenzo[b]thiophen-3-yl)-6-methyl-1,4-dihydropyridine-3,5-dicarboxylate] are no less than 1000 nM and greater than 7.00.
Turning to `CC(=O)C1=C(C)NC(C)=C(C(=O)OCc2cccc(C#N)c2)C1c1csc2ncccc12` (centres unmarked) [Example C72, 3-Cyanobenzyl 5-acetyl-2,6-dimethyl-4-(thieno[2,3-b]pyridin-3-yl)-1,4-dihydropyridine-3-carboxylate], the Kb in assay [1] is no less than 1000 nM. Moreover, the pIC50 in assay [2] was greater than 7.00.
For the compound `COC(=O)C1=C(C2CC2)NC(C)=C(C(C)=O)C1c1csc2ncccc12` (centres unmarked) [Example J23, Methyl 5-acetyl-2-cyclopropyl-6-methyl-4-(thieno[2,3-b]pyridin-3-yl)-1,4-dihydropyridine-3-carboxylate], in assay [1], the antagonist equilibrium constant (Kb) is no less than 1000 nM. This compound also had a pIC50 in assay [2] of 6.00 to 7.00.
As to `CC(=O)C1=C(C)NC(C)=C(C(=O)OCc2cccc(-c3cccnc3)c2)C1c1csc2ncccc12` (centres unmarked) [Example L4, 3-(pyridin-3-yl)benzyl 5-acetyl-2,6-dimethyl-4-(thieno[2,3-b]pyridin-3-yl)-1,4-dihydropyridine-3-carboxylate], the Kb in assay [1] lay within 100 to 1000 nM. In addition, in assay [2], the pIC50 was greater than 7.00.
On the same counts, the results for `CC(=O)C1=C(C)NC(C2CC2)=C(C(=O)OCc2ccc(F)cc2)C1c1csc2ncccc12` (centres unmarked) [Example J42, 4-fluorobenzyl 5-acetyl-2-cyclopropyl-6-methyl-4-(thieno[2,3-b]pyridin-3-yl)-1,4-dihydropyridine-3-carboxylate] are less than 100 nM and greater than 7.00.
The matching figures for `CC1=C(C(=O)C2CC2)C(c2csc3c(C#N)cccc23)C(C(=O)OCC2CC2)=C(N)N1` (centres unmarked) [Example D31, Cyclopropylmethyl 2-amino-4-(7-cyanobenzo[b]thiophen-3-yl)-5-(cyclopropanecarbonyl)-6-methyl-1,4-dihydropyridine-3-carboxylate]: 100 to 1000 nM and greater than 7.00.
The matching figures for `COC(=O)C1=C(CO)NC(C2CC2)=C(C(=O)OC)C1c1csc2c(C#N)cccc12` (centres unmarked) [Example C118, Dimethyl 4-(7-cyanobenzo[b]thiophen-3-yl)-2-cyclopropyl-6-(hydroxymethyl)-1,4-dihydropyridine-3,5-dicarboxylate]: 100 to 1000 nM and greater than 7.00.
Regarding `CC(=O)C1=C(C)NC(C)=C(C(=O)OCc2ccccc2)C1c1csc2ccc(Cl)cc12` (centres unmarked) [Example C42, Benzyl 5-acetyl-4-(5-chlorobenzo[b]thiophen-3-yl)-2,6-dimethyl-1,4-dihydropyridine-3-carboxylate], the Kb in assay [1] was less than 100 nM. The compound also showed a pIC50 in assay [2] greater than 7.00.
